In the experiment the target is KRAS G12D (Homo sapiens, UniProt P01116, G12D). Description: KRAS G12D GDP-GTP exchange assay (bodipy-GDP/GppNHp, SOS1). Format: biochemical. The settings on record: bodipy loaded KRAS G12D 2.5 nM, 4 hours incubation after GppNHp-SOS1; read-out: G12D_exchange (KRAS_G12D exchange assay IC50). As for the experimental part:
The inhibitor potency of the exemplified compounds was determined in a fluorescence based guanine nucleotide exchange assay, which measures the exchange of bodipy-GDP (fluorescently labeled GDP) for GppNHp (Non-hydrolyzable GTP analog) to generate the active state of KRAS in the presence of SOS1 (guanine nucleotide exchange factor). Inhibitors were serially diluted in DMSO and a volume of 0.1 μL was transferred to the wells of a black low volume 384-well plate. 5 μL/well volume of bodipy-loaded KRAS G12C diluted to 5 nM in assay buffer (25 mM Hepes pH 7.5, 50 mM NaCl, 10 mM MgCl2 and 0.01% Brij-35) was added to the plate and pre-incubated with inhibitor for 2 hours at ambient temperature. Appropriate controls (enzyme with no inhibitor or with a G12C inhibitor (AMG-510)) were included on the plate. The exchange was initiated by the addition of a 5 μL/well volume containing 1 mM GppNHp and 300 nM SOS1 in assay buffer. The 10 μL/well reaction concentration of the bodipy-loaded KRAS G12C, GppNHp, and SOS1 were 2.5 nM, 500 uM, and 150 nM, respectively. The reaction plates were incubated at ambient temperature for 2 hours, a time estimated for complete GDP-GTP exchange in the absence of inhibitor. For the KRAS G12D and G12V mutants, similar guanine nucleotide exchange assays were used with 2.5 nM as final concentration for the bodipy loaded KRAS proteins and with 4 hours and 3 hours incubation after adding GppNHp-SOS1 mixture for G12D and G12V respectively. A cyclic peptide described to selectively bind G12D mutant (Sakamoto et al., BBRC 484.3 (2017), 605-611) or internal compounds with confirmed binding were used as positive controls in the assay plates. Fluorescence intensities were measured on a PheraStar plate reader instrument (BMG Labtech) with excitation at 485 nm and emission at 520 nm.
Either GraphPad prism or XLfit was used to analyze the data. The IC50 values were derived by fitting the data to a four parameter logistic equation producing a sigmoidal dose-response curve with a variable Hill coefficient. Prism equation: Y=Bottom+(Top−Bottom)/(1+10^((Log IC50−X)*Hill slope)); XLfit equation: Y=(A+((B−A)/(1+((X/C)^D)))) where X is the logarithm of inhibitor concentration and Y is the response.
Sequence of KRAS G12D (P01116 1-188 isoform P01116-2 G12D): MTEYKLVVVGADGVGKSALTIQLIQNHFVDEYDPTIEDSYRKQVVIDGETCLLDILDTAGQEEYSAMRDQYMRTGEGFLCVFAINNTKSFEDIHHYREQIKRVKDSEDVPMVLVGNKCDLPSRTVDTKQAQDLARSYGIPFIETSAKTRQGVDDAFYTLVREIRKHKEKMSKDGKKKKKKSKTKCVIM
In the case of `Cc1cc2c3c(c(N4CC(N(C)C)C4)nc2c(F)c1-c1cc(O)cc2ccccc12)NC(=O)C31CCCNC1` (single isomer, unassigned) [Example 19b, 4′-(3-(dimethylamino)azetidin-1-yl)-6′-fluoro-7′-(3-hydroxynaphthalen-1-yl)-8′-methylspiro[piperidine-3,1′-pyrrolo[2,3-c]quinolin]-2′(3′H)-one], the IC50 fell in the range of 1 to 5 µM.

For the compound `CN(C)C1CN(c2nc3c(F)c(-c4cc(O)cc5ccc(Cl)cc45)c(Cl)cc3c3c2NC(=O)C32CCCNC2)C1` (single isomer, unassigned) [Example 20b, 8′-chloro-7′-(7-chloro-3-hydroxynaphthalen-1-yl)-4′-(3-(dimethylamino)azetidin-1-yl)-6′-fluorospiro[piperidine-3,1′-pyrrolo[2,3-c]quinolin]-2′(3′H)-one], the IC50 is 1 to 5 µM.

Take `CN(C)C1CN(c2nc3c(F)c(-c4cc(O)cc5ccccc45)c(Cl)cc3c3c2NC(=O)C32CC3CC2CN3)C1` (single isomer, unassigned) [Example 21b, 8′-chloro-4′-(3-(dimethylamino)azetidin-1-yl)-6′-fluoro-7′-(3-hydroxynaphthalen-1-yl)-5-azaspiro[bicyclo[2.2.1]heptane-2,1′-pyrrolo[2,3-c]quinolin]-2′(3′H)-one]: the IC50 is 1 to 5 µM.

With `CN(C)C1CN(c2nc3c(F)c(-c4cc(O)cc5ccccc45)c(CCCC#N)cc3c3c2NC(=O)C32CCCNC2)C1` (single isomer, unassigned) [Example 23b, 4-(4′-(3-(dimethylamino)azetidin-1-yl)-6′-fluoro-7′-(3-hydroxynaphthalen-1-yl)-2′-oxo-2′,3′-dihydrospiro[piperidine-3,1′-pyrrolo[2,3-c]quinolin]-8′-yl)butanenitrile], the half-inhibitory concentration (IC50) is 0.1 to 1 µM.

For `CN(C)C1CN(c2nc3c(F)c(-c4cc(O)cc5ccccc45)c(CC#N)cc3c3c2NC(=O)C32CCCNC2)C1` (single isomer, unassigned) [Example 24a, 2-(4′-(3-(dimethylamino)azetidin-1-yl)-6′-fluoro-7′-(3-hydroxynaphthalen-1-yl)-2′-oxo-2′,3′-dihydrospiro[piperidine-3,1′-pyrrolo[2,3-c]quinolin]-8′-yl)acetonitrile], the IC50 fell in the range of 1 to 5 µM.

Consider `CN(C)C1CN(c2nc3c(F)c(-c4cc(O)cc5ccccc45)c(CCC#N)cc3c3c2NC(=O)C32CCCNC2)C1` (single isomer, unassigned) [Example 25b, 3-(4′-(3-(dimethylamino)azetidin-1-yl)-6′-fluoro-7′-(3-hydroxynaphthalen-1-yl)-2′-oxo-2′,3′-dihydrospiro[piperidine-3,1′-pyrrolo[2,3-c]quinolin]-8′-yl)propanenitrile], for which the IC50 is 1 to 5 µM.

For `CN(C)C1CN(c2nc3c(F)c(-c4cc(O)cc5ccccc45)c(Cc4ccccc4Cl)cc3c3c2NC(=O)C32CCCNC2)C1` (single isomer, unassigned) [Example 26b, 8′-(2-chlorobenzyl)-4′-(3-(dimethylamino)azetidin-1-yl)-6′-fluoro-7′-(3-hydroxynaphthalen-1-yl)spiro[piperidine-3,1′-pyrrolo[2,3-c]quinolin]-2′(3′H)-one], the IC50 lay within 1 to 5 µM.

As to `CN(C)C1CN(c2nc3c(F)c(-c4cc(O)cc5ccccc45)c(Cc4ccccc4C#N)cc3c3c2NC(=O)C32CCCNC2)C1` (single isomer, unassigned) [Example 27b, 2-((4′-(3-(dimethylamino)azetidin-1-yl)-6′-fluoro-7′-(3-hydroxynaphthalen-1-yl)-2′-oxo-2′,3′-dihydrospiro[piperidine-3,1′-pyrrolo[2,3-c]quinolin]-8′-yl)methyl)benzonitrile], the IC50 was 1 to 5 µM.

Turning to `CN(C)C1CN(c2nc3c(F)c(-c4cc(O)cc5ccccc45)c(CCCC#N)cc3c3c2NCC32CCCNC2)C1` (single isomer, unassigned) [Example 28b, 4-(4′-(3-(dimethylamino)azetidin-1-yl)-6′-fluoro-7′-(3-hydroxynaphthalen-1-yl)-2′,3′-dihydrospiro[piperidine-3,1′-pyrrolo[2,3-c]quinolin]-8′-yl)butanenitrile], the IC50 was 1 to 5 µM.

`CN(C)C1CN(c2nc3c(F)c(-c4cc(O)cc5ccccc45)c(CCCC#N)cc3c3c2NC(=O)C32CCNC2)C1` (single isomer, unassigned) [Example 30b, 4-(4′-(3-(dimethylamino)azetidin-1-yl)-6′-fluoro-7′-(3-hydroxynaphthalen-1-yl)-2′-oxo-2′,3′-dihydrospiro[pyrrolidine-3,1′-pyrrolo[2,3-c]quinolin]-8′-yl)butanenitrile]: the IC50 lay in the range of 1 to 5 µM.

Take `CN(C)C1CN(c2nc3c(F)c(-c4cc(O)cc5ccccc45)c(CCCC#N)cc3c3c2NC(=O)C32CNCCO2)C1` (single isomer, unassigned) [Example 31b, 4-(4′-(3-(dimethylamino)azetidin-1-yl)-6′-fluoro-7′-(3-hydroxynaphthalen-1-yl)-2′-oxo-2′,3′-dihydrospiro[morpholine-2,1′-pyrrolo[2,3-c]quinolin]-8′-yl)butanenitrile]: the IC50 was in the range of 5 to 50 µM.

As to `CN1CCC[C@H]1COc1nc2c(F)c(-c3cc(O)cc4ccccc34)c(CCCC#N)cc2c2c1NC(=O)C21CCCNC1` (single isomer, unassigned) [Example 32b], the IC50 was 1 to 5 µM.

Turning to `CN1C(=O)C2(CCCNC2)c2c1c(OC[C@@H]1CCCN1C)nc1c(F)c(-c3cc(O)cc4ccccc34)c(CCCC#N)cc21` (single isomer, unassigned) [Example 33b], the IC50 is 1 to 5 µM.

`CN1CCC[C@H]1COc1nc2c(F)c(-c3cc(O)cc4ccccc34)c(CCCC#N)cc2c2c1N(CCO)C(=O)C21CCCNC1` (single isomer, unassigned) [Example 34b]: the IC50 was 1 to 5 µM.

`CN1CCC[C@H]1COc1nc2c(F)c(-c3cc(O)cc4ccccc34)c(CCCC#N)cc2c2c1N(CC#N)C(=O)C21CCCNC1` (single isomer, unassigned) [Example 36a]: the IC50 lay within 1 to 5 µM.

`CN1CCC[C@H]1COc1nc2c(F)c(-c3cc(O)cc4ccccc34)c(CCCC#N)cc2c2c1N(CC(N)=O)C(=O)C21CCCNC1` (single isomer, unassigned) [Example 37b]: the IC50 lay in the range of 1 to 5 µM.

With `CN(C)C1CN(c2nc3c(F)c(-c4cc(O)cc5ccccc45)c(Cl)cc3c3c2NC(=O)C32CC(N)C2)C1` (stereo not drawn) [Example 22, 3-amino-8′-chloro-4′-(3-(dimethylamino)azetidin-1-yl)-6′-fluoro-7′-(3-hydroxynaphthalen-1-yl)spiro[cyclobutane-1,1′-pyrrolo[2,3-c]quinolin]-2′(3′H)-one], the IC50 was in the range of 5 to 50 µM.

For `CN(C)C1CN(c2nc3c(F)c(-c4cc(O)cc5ccccc45)c(CCC#N)cc3c3c2NC(=O)C32CNC2)C1` [Example 29, 3-(4′-(3-(dimethylamino)azetidin-1-yl)-6′-fluoro-7′-(3-hydroxynaphthalen-1-yl)-2′-oxo-2′,3′-dihydrospiro[azetidine-3,1′-pyrrolo[2,3-c]quinolin]-8′-yl)propanenitrile], the IC50 was 1 to 5 µM.

(Values after patent publication US11530218B2, “Spiro compounds as inhibitors of KRAS” (Incyte Corporation, priority 2020, dated 2022).)
